The source of these data is patent US11414395B2, “Heterocyclic compounds as modulators of mGluR7” (PRAGMA Therapeutics, priority 2017, dated 2022).

The target of the assay is human mGluR7 (Homo sapiens (Human), UniProt Q14831). Kind of assay: Inositol monophosphate production assay (IP1 assay), inhibition of L-AP4 response. Type of assay: cell-based. The following applies: mean IC50 from at least two independent experiments; HEK293 cells transiently transfected with mGluR7, Gqtop and EAAC1; IP1 production vs EC80 L-AP4. From the text: Inositol Monophosphate Production Assay (IP1 Assay):
HEK293 cells were transiently transfected with mGluR7 by electroporation and seeded in a poly-ornithine coated 96-well plate at the density of 150 000 cells/well. To allow the monitoring of receptor activity through measurements of inositol monophosphate (IP1) production, mGluR7 was transfected with a chimeric Gq/Gi protein (Gqtop). and was also co-transfected with EAAC1, a glutamate transporter, to avoid influence of extracellular glutamate. Cells were cultured in Dulbecco's Modified Eagle Medium (DMEM, Invitrogen, Cergy Pontoise, France), supplemented with 10% of Fetal Bovine Serum (FBS). Medium was changed by Glutamax™ (Invitrogen, Cergy Pontoise, France) to reduce extracellular glutamate concentration 3 hours before stimulation
IP1 production was determined using the IP-One HTRF kit (CisBio Bioassays), a competitive immunoassay using cryptate-labeled anti-IP1 antibody and d2-labeled IP, according to the manufacturer's recommendations. All points were realized in triplicate.
Data were analyzed with Prism 6 software (GraphPadSoftware, San Diego, Calif.). Typically, in each experiment, a four-parameter concentration-response curve equation was used to fit data and potency (IC50) is estimated as logarithms (log IC50). Data were calculated as % of the control mGluR7 agonist L-AP4 response, defined as the response that is generated upon addition of an EC80-equivalent concentration of L-AP4.
The Table 2 below represents the mean IC50 obtained from at least two independent experiments.

human mGluR7, sequence (Q14831 35-915): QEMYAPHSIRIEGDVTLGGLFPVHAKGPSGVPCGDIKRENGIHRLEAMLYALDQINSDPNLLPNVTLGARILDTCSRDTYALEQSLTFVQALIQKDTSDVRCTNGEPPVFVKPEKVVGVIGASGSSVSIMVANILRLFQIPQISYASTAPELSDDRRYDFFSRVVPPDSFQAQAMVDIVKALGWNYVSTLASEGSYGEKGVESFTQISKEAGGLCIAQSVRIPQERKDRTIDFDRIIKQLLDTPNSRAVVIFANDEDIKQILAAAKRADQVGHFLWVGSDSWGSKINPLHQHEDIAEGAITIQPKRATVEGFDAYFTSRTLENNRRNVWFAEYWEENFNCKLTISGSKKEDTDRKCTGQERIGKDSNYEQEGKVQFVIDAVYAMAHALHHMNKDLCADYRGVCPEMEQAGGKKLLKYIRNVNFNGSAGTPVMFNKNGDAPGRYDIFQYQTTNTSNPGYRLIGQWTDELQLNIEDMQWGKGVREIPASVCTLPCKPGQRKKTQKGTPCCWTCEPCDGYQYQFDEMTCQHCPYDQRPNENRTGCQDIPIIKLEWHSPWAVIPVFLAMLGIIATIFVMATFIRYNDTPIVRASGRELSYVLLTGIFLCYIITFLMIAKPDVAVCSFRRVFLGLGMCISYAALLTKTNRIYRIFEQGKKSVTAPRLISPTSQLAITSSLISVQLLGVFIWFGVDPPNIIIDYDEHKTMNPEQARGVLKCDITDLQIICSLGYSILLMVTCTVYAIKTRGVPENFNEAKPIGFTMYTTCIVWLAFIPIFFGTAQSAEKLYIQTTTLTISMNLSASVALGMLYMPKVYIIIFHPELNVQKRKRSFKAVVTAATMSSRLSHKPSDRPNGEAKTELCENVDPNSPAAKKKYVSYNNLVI

On to `Cc1ccc(C2CCc3c(cnn(-c4ccccn4)c3=O)C2)c(C)c1` (single isomer, unassigned; (+)) [Example 5, (+)-6-(2,4-dimethyl-phenyl)-2-pyridin-2-yl-5,6,7,8-tetrahydro-2H-phthalazin-1-one], for which the half-inhibitory concentration (IC50) is < 500 nM. Next, `Cc1c(OC2CC2)cccc1C1CCc2c(cnn(-c3ncccn3)c2=O)C1` (single isomer, unassigned; (+)) [Example 129, (+)-6-(3-cyclopropoxy-2-methylphenyl)-2-(pyrimidin-2-yl)-5,6,7,8-tetrahydrophthalazin-1(2H)-one]: 500 to 1000 nM; `O=c1c2c(cnn1-c1ncccn1)CC(c1cccc(OC3CC3)c1Cl)CC2` (single isomer, unassigned; (+)) [Example 131, (+)-6-(2-chloro-3-cyclopropoxyphenyl)-2-(pyrimidin-2-yl)-5,6,7,8-tetrahydrophthalazin-1(2H)-one]: < 500 nM; `Cc1cnc(-n2ncc3c(c2=O)CCC(c2cccc(OC4CC4)c2C)C3)nc1` (single isomer, unassigned; (+)) [Example 133, (+)-6-(3-cyclopropoxy-2-methylphenyl)-2-(5-methylpyrimidin-2-yl)-5,6,7,8-tetrahydrophthalazin-1(2H)-one]: 1000 to 30000 nM. As for `COc1cccc(C2CCc3c(cnn(-c4ncc(C)cn4)c3=O)C2)c1Cl` (single isomer, unassigned; (+)) [Example 135, (+)-6-(2-chloro-3-methoxyphenyl)-2-(5-methylpyrimidin-2-yl)-5,6,7,8-tetrahydrophthalazin-1(2H)-one], the IC50 lay in the range of 500 to 1000 nM. Next, `CC(=O)Nc1cnc(-n2ncc3c(c2=O)CCC(c2ccc(C)cc2C)C3)nc1` (single isomer, unassigned; (+)) [Example 137, (+)-N-(2-(6-(2,4-dimethylphenyl)-1-oxo-5,6,7,8-tetrahydrophthalazin-2(1H)-yl)pyrimidin-5-yl)acetamide]: < 500 nM; `O=c1c2c(cnn1-c1ncccn1)CC(c1cccc3c1ccn3C1CC1)CC2` (single isomer, unassigned; (+)) [Example 138, (+)-6-(1-cyclopropyl-1H-indol-4-yl)-2-(pyrimidin-2-yl)-5,6,7,8-tetrahydrophthalazin-1(2H)-one]: 500 to 1000 nM.

For `Cc1ccc(C2CCc3c(cnn(-c4ccccn4)c3=O)C2)c(C)c1` (single isomer, unassigned; (-)) [Example 4, (−)-6-(2,4-dimethyl-phenyl)-2-pyridin-2-yl-5,6,7,8-tetrahydro-2H-phthalazin-1-one], the IC50 is 1000 to 30000 nM. On to `Cc1c(OC2CC2)cccc1C1CCc2c(cnn(-c3ncccn3)c2=O)C1` (single isomer, unassigned; (-)) [Example 128, (−)-6-(3-cyclopropoxy-2-methylphenyl)-2-(pyrimidin-2-yl)-5,6,7,8-tetrahydrophthalazin-1(2H)-one], for which the half-maximal inhibitory concentration (IC50) was < 500 nM. Consider `O=c1c2c(cnn1-c1ncccn1)CC(c1cccc(OC3CC3)c1Cl)CC2` (single isomer, unassigned; (-)) [Example 130, (−)-6-(2-chloro-3-cyclopropoxyphenyl)-2-(pyrimidin-2-yl)-5,6,7,8-tetrahydrophthalazin-1(2H)-one], for which the IC50 is < 500 nM. In the case of `Cc1cnc(-n2ncc3c(c2=O)CCC(c2cccc(OC4CC4)c2C)C3)nc1` (single isomer, unassigned; (-)) [Example 132, (−)-6-(3-cyclopropoxy-2-methylphenyl)-2-(5-methylpyrimidin-2-yl)-5,6,7,8-tetrahydrophthalazin-1(2H)-one], the half-inhibitory concentration (IC50) was < 500 nM. On to `COc1cccc(C2CCc3c(cnn(-c4ncc(C)cn4)c3=O)C2)c1Cl` (single isomer, unassigned; (-)) [Example 134, (−)-6-(2-chloro-3-methoxyphenyl)-2-(5-methylpyrimidin-2-yl)-5,6,7,8-tetrahydrophthalazin-1(2H)-one], for which the IC50 was < 500 nM. With `CC(=O)Nc1cnc(-n2ncc3c(c2=O)CCC(c2ccc(C)cc2C)C3)nc1` (single isomer, unassigned; (-)) [Example 136, (−)-N-(2-(6-(2,4-dimethylphenyl)-1-oxo-5,6,7,8-tetrahydrophthalazin-2(1H)-yl)pyrimidin-5-yl)acetamide], the IC50 was in the range of 1000 to 30000 nM. Take `O=c1c2c(cnn1-c1ncccn1)CC(c1cccc3c1ccn3C1CC1)CC2` (single isomer, unassigned; (-)) [Example 139, (−)-6-(1-cyclopropyl-1H-indol-4-yl)-2-(pyrimidin-2-yl)-5,6,7,8-tetrahydrophthalazin-1(2H)-one]: the IC50 is < 500 nM. Consider `Cc1ccc(C2CCc3c(cnn(-c4ccccn4)c3=O)C2)c(C)c1` (centres unmarked) [Example 1, 6-(2,4-dimethyl-phenyl)-2-pyridin-2-yl-5,6,7,8-tetrahydro-2H-phthalazin-1-one], for which the IC50 is < 500 nM. The value for `COc1cccc(C2CCc3c(cnn(-c4ccccn4)c3=O)C2)c1` (centres unmarked) [Example 2, 6-(3-methoxyphenyl)-2-(pyridin-2-yl)-5,6,7,8-tetrahydrophthalazin-1(2H)-one] was 500 to 1000 nM. For `COc1ccc(C2CCc3c(cnn(-c4ccccn4)c3=O)C2)cc1` (centres unmarked) [Example 3, 6-(4-methoxyphenyl)-2-(pyridin-2-yl)-5,6,7,8-tetrahydrophthalazin-1(2H)-one], the half-inhibitory concentration (IC50) was in the range of 1000 to 30000 nM. Turning to `Cc1ccc(C2CCc3c(cnn(-c4ccc(Cl)cn4)c3=O)C2)c(C)c1` (centres unmarked) [Example 6, 6-(2,4-dimethylphenyl)-2-(5-chlororopyridin-2-yl)-5,6,7,8-tetrahydro-phthalazin-1(2H)-one], the half-inhibitory concentration (IC50) is < 500 nM.

Consider `Cc1ccc(C2CCc3c(cnn(-c4cc(Cl)ccn4)c3=O)C2)c(C)c1` (centres unmarked) [Example 7, 2-(4-chloropyridin-2-yl)-6-(2,4-dimethylphenyl)-5,6,7,8-tetrahydrophthalazin-1(2H)-one], for which the 50% inhibitory concentration (IC50) is < 500 nM. The value for `Cc1ccc(C2CCc3c(cnn(-c4ncccc4Cl)c3=O)C2)c(C)c1` (centres unmarked) [Example 8, 2-(3-chloropyridin-2-yl)-6-(2,4-dimethylphenyl)-5,6,7,8-tetrahydrophthalazin-1(2H)-one] was < 500 nM. For `Cc1ccc(C2CCc3c(cnn(-c4cccc(F)n4)c3=O)C2)c(C)c1` (centres unmarked) [Example 9, 6-(2,4-dimethylphenyl)-2-(6-fluoropyridin-2-yl)-5,6,7,8-tetrahydrophthalazin-1(2H)-one], the IC50 was < 500 nM. For `Cc1ccc(C2CCc3c(cnn(-c4ccc(F)cn4)c3=O)C2)c(C)c1` (centres unmarked) [Example 10, 6-(2,4-dimethylphenyl)-2-(5-fluoropyridin-2-yl)-5,6,7,8-tetrahydrophthalazin-1(2H)-one], the IC50 was < 500 nM.

On to `Cc1ccc(C2CCc3c(cnn(-c4cc(F)ccn4)c3=O)C2)c(C)c1` (centres unmarked) [Example 11, 6-(2,4-dimethylphenyl)-2-(4-fluoropyridin-2-yl)-5,6,7,8-tetrahydrophthalazin-1(2H)-one], for which the IC50 was < 500 nM. With `Cc1ccc(C2CCc3c(cnn(-c4ncccc4F)c3=O)C2)c(C)c1` (centres unmarked) [Example 12, 6-(2,4-dimethylphenyl)-2-(3-fluoropyridin-2-yl)-5,6,7,8-tetrahydrophthalazin-1(2H)-one], the IC50 was < 500 nM. Consider `COc1cccc(-n2ncc3c(c2=O)CCC(c2ccc(C)cc2C)C3)n1` (centres unmarked) [Example 13, 6-(2,4-dimethylphenyl)-2-(6-methoxypyridin-2-yl)-5,6,7,8-tetrahydrophthalazin-1(2H)-one], for which the IC50 is < 500 nM.

With `COc1ccc(-n2ncc3c(c2=O)CCC(c2ccc(C)cc2C)C3)nc1` (centres unmarked) [Example 14, 6-(2,4-dimethylphenyl)-2-(5-methoxypyridin-2-yl)-5,6,7,8-tetrahydrophthalazin-1(2H)-one], the IC50 was < 500 nM. For `COc1ccnc(-n2ncc3c(c2=O)CCC(c2ccc(C)cc2C)C3)c1` (centres unmarked) [Example 15, 6-(2,4-dimethylphenyl)-2-(4-methoxypyridin-2-yl)-5,6,7,8-tetrahydrophthalazin-1(2H)-one], the half-maximal inhibitory concentration (IC50) is < 500 nM. Consider `COc1cccnc1-n1ncc2c(c1=O)CCC(c1ccc(C)cc1C)C2` (centres unmarked) [Example 16, 6-(2,4-dimethylphenyl)-2-(3-methoxypyridin-2-yl)-5,6,7,8-tetrahydrophthalazin-1(2H)-one], for which the IC50 is < 500 nM.

In the case of `Cc1ccc(C2CCc3c(cnn(-c4cccc(C)n4)c3=O)C2)c(C)c1` (centres unmarked) [Example 17, 6-(2,4-dimethylphenyl)-2-(6-methylpyridin-2-yl)-5,6,7,8-tetrahydrophthalazin-1(2H)-one], the IC50 was < 500 nM.

Consider `Cc1ccc(-n2ncc3c(c2=O)CCC(c2ccc(C)cc2C)C3)nc1` (centres unmarked) [Example 18, 6-(2,4-dimethylphenyl)-2-(5-methylpyridin-2-yl)-5,6,7,8-tetrahydrophthalazin-1(2H)-one], for which the IC50 is < 500 nM. With `Cc1ccnc(-n2ncc3c(c2=O)CCC(c2ccc(C)cc2C)C3)c1` (centres unmarked) [Example 19, 6-(2,4-dimethylphenyl)-2-(4-methylpyridin-2-yl)-5,6,7,8-tetrahydrophthalazin-1(2H)-one], the concentration for half-maximal inhibition (IC50) is < 500 nM.

For `Cc1ccc(C2CCc3c(cnn(-c4ncccc4C)c3=O)C2)c(C)c1` (centres unmarked) [Example 20, 6-(2,4-dimethylphenyl)-2-(3-methylpyridin-2-yl)-5,6,7,8-tetrahydrophthalazin-1(2H)-one], the IC50 was < 500 nM.

For orientation: IC50 means the midpoint of a concentration-inhibition curve.
